Assay results from ChEMBL document CHEMBL4507289, “Data for DCP probe GSM1” (2021).

What was measured:
[1] = tested on: Tyrosine-protein kinase ABL1 (Homo sapiens), P00519 [F317I]; conditions: Compound concentration 1000.0 nM
Rattus norvegicus = organism: Rattus norvegicus; conditions: Compound concentration 10.0 uM
[2] = molecular target: Epidermal growth factor receptor (Homo sapiens) (UniProt P00533); conditions: Compound concentration 1000.0 nM
[3] = molecular target: Mitogen-activated protein kinase 9 (Homo sapiens) (UniProt P45984); conditions: Compound concentration 1000.0 nM
[4] = tested on: Receptor-type tyrosine-protein kinase FLT3 (Homo sapiens), P36888 [D835V]; conditions: Compound concentration 1000.0 nM
[5] = tested on: Epidermal growth factor receptor (Homo sapiens), P00533 [L861Q]; conditions: Compound concentration 1000.0 nM
[6] = molecular target: 5-hydroxytryptamine receptor 2C (Homo sapiens) (UniProt P28335); conditions: Compound concentration 10.0 uM
[7] = molecular target: Aurora kinase A (Homo sapiens) (UniProt O14965); conditions: Compound concentration 1000.0 nM
[8] = tested on: ALK tyrosine kinase receptor (Homo sapiens), Q9UM73 [L1196M]; conditions: Compound concentration 1000.0 nM
Chain of ALK tyrosine kinase receptor (Homo sapiens), Q9UM73 [L1196M] (Q9UM73 whole entry L1196M, looked up): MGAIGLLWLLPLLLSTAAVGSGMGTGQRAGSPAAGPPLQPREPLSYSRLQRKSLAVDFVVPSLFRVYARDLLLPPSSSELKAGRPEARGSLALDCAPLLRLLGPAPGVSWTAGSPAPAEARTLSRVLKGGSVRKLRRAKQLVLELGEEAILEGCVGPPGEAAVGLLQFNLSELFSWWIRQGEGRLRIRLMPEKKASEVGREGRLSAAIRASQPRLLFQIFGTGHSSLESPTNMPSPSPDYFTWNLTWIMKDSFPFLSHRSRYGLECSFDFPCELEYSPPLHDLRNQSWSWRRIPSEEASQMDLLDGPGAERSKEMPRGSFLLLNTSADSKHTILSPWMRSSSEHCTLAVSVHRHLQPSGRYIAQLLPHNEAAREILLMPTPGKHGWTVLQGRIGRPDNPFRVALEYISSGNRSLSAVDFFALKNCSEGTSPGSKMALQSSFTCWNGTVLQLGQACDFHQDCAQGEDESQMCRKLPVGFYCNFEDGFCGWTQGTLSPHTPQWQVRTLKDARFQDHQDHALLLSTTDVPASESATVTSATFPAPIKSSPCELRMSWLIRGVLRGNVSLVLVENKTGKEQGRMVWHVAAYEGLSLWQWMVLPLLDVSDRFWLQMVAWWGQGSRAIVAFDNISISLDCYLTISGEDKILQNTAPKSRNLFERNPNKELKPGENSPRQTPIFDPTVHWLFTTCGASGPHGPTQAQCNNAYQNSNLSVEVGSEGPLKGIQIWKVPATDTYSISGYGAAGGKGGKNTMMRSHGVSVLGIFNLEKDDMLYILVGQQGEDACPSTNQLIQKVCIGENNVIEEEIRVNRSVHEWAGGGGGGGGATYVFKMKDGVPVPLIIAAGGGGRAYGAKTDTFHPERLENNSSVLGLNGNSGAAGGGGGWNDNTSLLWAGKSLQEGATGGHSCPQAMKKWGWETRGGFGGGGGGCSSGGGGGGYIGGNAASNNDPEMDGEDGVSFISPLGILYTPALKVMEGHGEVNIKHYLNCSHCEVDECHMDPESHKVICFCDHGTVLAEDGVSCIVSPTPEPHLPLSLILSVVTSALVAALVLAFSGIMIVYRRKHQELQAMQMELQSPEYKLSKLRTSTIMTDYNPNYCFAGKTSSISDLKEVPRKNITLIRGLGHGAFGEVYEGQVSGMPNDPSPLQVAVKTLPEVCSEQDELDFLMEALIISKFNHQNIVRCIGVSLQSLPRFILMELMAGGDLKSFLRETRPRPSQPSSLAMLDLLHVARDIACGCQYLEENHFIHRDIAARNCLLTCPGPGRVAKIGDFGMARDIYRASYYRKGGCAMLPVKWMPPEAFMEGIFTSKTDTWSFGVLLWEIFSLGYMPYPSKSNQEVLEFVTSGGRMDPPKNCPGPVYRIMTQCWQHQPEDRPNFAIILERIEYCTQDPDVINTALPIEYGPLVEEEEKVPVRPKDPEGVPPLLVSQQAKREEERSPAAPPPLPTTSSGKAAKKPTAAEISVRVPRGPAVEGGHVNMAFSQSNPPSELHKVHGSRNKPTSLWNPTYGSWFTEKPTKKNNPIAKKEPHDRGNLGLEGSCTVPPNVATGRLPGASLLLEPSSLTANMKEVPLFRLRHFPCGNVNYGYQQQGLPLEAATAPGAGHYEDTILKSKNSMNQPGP

[9] = tested on: Tyrosine-protein kinase ABL1 (Homo sapiens), P00519 [F317I]; conditions: Compound concentration 1000.0 nM; remark: listed apart in the source
[10] = molecular target: Ribosomal protein S6 kinase alpha-5 (Homo sapiens) (UniProt O75582); conditions: Compound concentration 1000.0 nM
[11] = tested on: ALK tyrosine kinase receptor (Homo sapiens), Q9UM73 [C1156Y]; conditions: Compound concentration 1000.0 nM
Chain of ALK tyrosine kinase receptor (Homo sapiens), Q9UM73 [C1156Y] (Q9UM73 whole entry C1156Y, looked up): as the sequence (Q9UM73 whole entry L1196M, looked up) above, with C1156Y, M1196L counted along it

[12] = molecular target: Serine/threonine-protein kinase PAK 5 (Homo sapiens) (UniProt Q9P286); conditions: Compound concentration 1000.0 nM
[13] = molecular target: Rhodopsin kinase GRK1 (Homo sapiens) (UniProt Q15835); conditions: Compound concentration 1000.0 nM
[14] = molecular target: Serine/threonine-protein kinase STK11 (Homo sapiens) (UniProt Q15831); conditions: Compound concentration 1000.0 nM
[15] = molecular target: Ankyrin repeat and protein kinase domain-containing protein 1 (Homo sapiens) (UniProt Q8NFD2); conditions: Compound concentration 1000.0 nM
[16] = molecular target: Serine/threonine-protein kinase RIO3 (Homo sapiens) (UniProt O14730); conditions: Compound concentration 1000.0 nM
[17] = molecular target: Cyclin-dependent kinase 4 (Homo sapiens) (UniProt P11802); conditions: Compound concentration 1000.0 nM
Chain of Cyclin-dependent kinase 4 (Homo sapiens) (P11802 whole entry): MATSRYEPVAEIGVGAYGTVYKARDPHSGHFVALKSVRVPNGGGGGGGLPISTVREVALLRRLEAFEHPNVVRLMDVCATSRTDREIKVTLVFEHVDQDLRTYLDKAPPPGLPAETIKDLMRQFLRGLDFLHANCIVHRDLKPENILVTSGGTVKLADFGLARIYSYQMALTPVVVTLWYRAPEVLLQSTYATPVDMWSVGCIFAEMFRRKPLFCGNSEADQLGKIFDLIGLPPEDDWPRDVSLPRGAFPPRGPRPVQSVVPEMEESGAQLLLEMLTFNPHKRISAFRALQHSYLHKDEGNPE

[18] = molecular target: Bone morphogenetic protein receptor type-2 (Homo sapiens) (UniProt Q13873); conditions: Compound concentration 1000.0 nM
[19] = molecular target: Glycogen synthase kinase-3 beta (Homo sapiens) (UniProt P49841); conditions: Compound concentration 1000.0 nM
[20] = molecular target: Macrophage colony-stimulating factor 1 receptor (Homo sapiens) (UniProt P07333); conditions: Compound concentration 1000.0 nM
[21] = molecular target: Casein kinase I isoform alpha (Homo sapiens) (UniProt P48729); conditions: Compound concentration 1000.0 nM
[22] = molecular target: Serine/threonine-protein kinase 32C (Homo sapiens) (UniProt Q86UX6); conditions: Compound concentration 1000.0 nM
Chain of Serine/threonine-protein kinase 32C (Homo sapiens) (Q86UX6 whole entry): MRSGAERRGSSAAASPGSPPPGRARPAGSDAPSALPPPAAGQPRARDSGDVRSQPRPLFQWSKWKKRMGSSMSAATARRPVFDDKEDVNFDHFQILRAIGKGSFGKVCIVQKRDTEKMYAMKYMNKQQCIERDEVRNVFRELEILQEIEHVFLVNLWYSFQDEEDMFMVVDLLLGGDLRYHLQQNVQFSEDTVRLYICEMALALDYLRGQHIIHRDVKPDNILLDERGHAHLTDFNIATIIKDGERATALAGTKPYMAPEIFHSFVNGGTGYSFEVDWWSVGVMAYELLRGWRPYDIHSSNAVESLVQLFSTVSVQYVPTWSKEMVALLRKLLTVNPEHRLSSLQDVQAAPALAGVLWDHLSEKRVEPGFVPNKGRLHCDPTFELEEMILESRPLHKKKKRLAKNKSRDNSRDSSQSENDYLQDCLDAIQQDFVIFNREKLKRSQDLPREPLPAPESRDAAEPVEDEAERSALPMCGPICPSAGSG

[23] = molecular target: Serine/threonine-protein kinase Sgk3 (Homo sapiens) (UniProt Q96BR1); conditions: Compound concentration 1000.0 nM
[24] = molecular target: Homeodomain-interacting protein kinase 1 (Homo sapiens) (UniProt Q86Z02); conditions: Compound concentration 1000.0 nM
Chain of Homeodomain-interacting protein kinase 1 (Homo sapiens) (Q86Z02 whole entry, looked up): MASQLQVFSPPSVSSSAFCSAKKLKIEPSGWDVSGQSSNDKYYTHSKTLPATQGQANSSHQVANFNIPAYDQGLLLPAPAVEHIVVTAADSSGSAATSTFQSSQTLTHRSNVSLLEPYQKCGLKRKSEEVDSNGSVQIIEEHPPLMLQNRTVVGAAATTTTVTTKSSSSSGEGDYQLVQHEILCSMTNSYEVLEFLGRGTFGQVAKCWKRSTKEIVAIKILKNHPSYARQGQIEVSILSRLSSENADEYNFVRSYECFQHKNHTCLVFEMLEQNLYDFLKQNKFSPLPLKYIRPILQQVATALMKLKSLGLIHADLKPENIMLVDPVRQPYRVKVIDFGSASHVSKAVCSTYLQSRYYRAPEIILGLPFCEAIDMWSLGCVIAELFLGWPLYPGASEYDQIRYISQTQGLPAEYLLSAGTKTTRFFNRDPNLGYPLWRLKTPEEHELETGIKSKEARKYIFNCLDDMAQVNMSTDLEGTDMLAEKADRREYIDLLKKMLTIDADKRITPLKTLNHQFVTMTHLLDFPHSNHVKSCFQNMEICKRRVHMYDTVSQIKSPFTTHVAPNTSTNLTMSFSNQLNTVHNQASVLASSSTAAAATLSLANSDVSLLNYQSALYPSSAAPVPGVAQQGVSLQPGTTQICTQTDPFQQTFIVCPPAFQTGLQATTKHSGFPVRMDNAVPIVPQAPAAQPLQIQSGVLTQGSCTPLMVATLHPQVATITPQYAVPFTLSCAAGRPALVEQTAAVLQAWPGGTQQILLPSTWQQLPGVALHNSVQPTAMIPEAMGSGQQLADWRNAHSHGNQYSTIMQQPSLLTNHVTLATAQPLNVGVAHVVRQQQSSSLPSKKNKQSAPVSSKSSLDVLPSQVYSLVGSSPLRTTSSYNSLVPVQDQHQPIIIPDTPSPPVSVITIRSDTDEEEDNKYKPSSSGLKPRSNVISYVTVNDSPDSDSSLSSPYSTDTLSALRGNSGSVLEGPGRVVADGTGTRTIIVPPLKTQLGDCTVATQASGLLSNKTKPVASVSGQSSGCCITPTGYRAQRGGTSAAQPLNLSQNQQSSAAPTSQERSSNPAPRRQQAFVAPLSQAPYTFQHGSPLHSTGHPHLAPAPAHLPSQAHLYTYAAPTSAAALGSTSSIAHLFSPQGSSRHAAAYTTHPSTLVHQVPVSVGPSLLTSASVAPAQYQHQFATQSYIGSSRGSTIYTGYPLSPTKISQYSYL

[25] = molecular target: Tyrosine-protein kinase ABL1 (Homo sapiens) (UniProt P00519); conditions: Compound concentration 1000.0 nM
[26] = molecular target: Phosphatidylinositol 4-kinase beta (Homo sapiens) (UniProt Q9UBF8); conditions: Compound concentration 1000.0 nM
[27] = molecular target: Hepatocyte growth factor receptor (Homo sapiens) (UniProt P08581); conditions: Compound concentration 1000.0 nM
[28] = molecular target: Serine/threonine-protein kinase Nek9 (Homo sapiens) (UniProt Q8TD19); conditions: Compound concentration 1000.0 nM
[29] = molecular target: Tyrosine-protein kinase Tec (Homo sapiens) (UniProt P42680); conditions: Compound concentration 1000.0 nM
[30] = tested on: Tyrosine-protein kinase ABL1 (Homo sapiens), P00519 [Y253F]; conditions: Compound concentration 1000.0 nM
[31] = molecular target: Serine/threonine-protein kinase 36 (Homo sapiens) (UniProt Q9NRP7); conditions: Compound concentration 1000.0 nM
[32] = molecular target: Ribosomal protein S6 kinase alpha-1 (Homo sapiens) (UniProt Q15418); conditions: Compound concentration 1000.0 nM
Chain of Ribosomal protein S6 kinase alpha-1 (Homo sapiens) (Q15418 whole entry): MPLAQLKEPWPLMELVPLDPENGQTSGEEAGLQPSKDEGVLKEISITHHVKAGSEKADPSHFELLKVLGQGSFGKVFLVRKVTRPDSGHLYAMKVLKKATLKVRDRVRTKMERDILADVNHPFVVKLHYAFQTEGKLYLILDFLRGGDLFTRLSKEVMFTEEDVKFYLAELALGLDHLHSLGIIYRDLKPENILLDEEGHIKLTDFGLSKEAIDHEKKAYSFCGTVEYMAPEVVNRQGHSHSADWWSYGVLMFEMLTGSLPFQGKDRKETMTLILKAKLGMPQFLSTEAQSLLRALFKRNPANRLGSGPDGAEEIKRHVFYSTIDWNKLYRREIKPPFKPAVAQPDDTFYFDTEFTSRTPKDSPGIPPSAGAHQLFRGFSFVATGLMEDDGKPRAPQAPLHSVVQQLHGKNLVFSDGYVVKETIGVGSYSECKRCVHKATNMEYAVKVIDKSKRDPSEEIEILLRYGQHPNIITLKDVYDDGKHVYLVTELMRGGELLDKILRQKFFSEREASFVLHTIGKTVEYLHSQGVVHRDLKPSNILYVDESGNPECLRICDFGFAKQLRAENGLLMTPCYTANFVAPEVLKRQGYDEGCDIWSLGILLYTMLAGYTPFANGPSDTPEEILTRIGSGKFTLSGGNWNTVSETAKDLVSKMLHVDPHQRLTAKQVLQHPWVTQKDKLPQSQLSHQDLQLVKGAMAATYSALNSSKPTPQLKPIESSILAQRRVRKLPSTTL

[33] = molecular target: Serine/threonine-protein kinase MRCK beta (Homo sapiens) (UniProt Q9Y5S2); conditions: Compound concentration 1000.0 nM
[34] = molecular target: Serine/threonine-protein kinase TAO2 (Homo sapiens) (UniProt Q9UL54); conditions: Compound concentration 1000.0 nM
[35] = molecular target: Serine/threonine-protein kinase DCLK3 (Homo sapiens) (UniProt Q9C098); conditions: Compound concentration 1000.0 nM
[36] = molecular target: Glycogen synthase kinase-3 alpha (Homo sapiens) (UniProt P49840); conditions: Compound concentration 1000.0 nM
[37] = molecular target: Mitogen-activated protein kinase kinase kinase 12 (Homo sapiens) (UniProt Q12852); conditions: Compound concentration 1000.0 nM
[38] = molecular target: Activin receptor type-2B (Homo sapiens) (UniProt Q13705); conditions: Compound concentration 1000.0 nM
[39] = tested on: Proto-oncogene tyrosine-protein kinase receptor Ret (Homo sapiens), P07949 [M918T]; conditions: Compound concentration 1000.0 nM
[40] = molecular target: Ribosomal protein S6 kinase beta-1 (Homo sapiens) (UniProt P23443); conditions: Compound concentration 1000.0 nM
[41] = molecular target: Serine/threonine-protein kinase VRK2 (Homo sapiens) (UniProt Q86Y07); conditions: Compound concentration 1000.0 nM
[42] = molecular target: Muscarinic acetylcholine receptor M5 (Homo sapiens) (UniProt P08912); conditions: Compound concentration 10.0 uM
[43] = molecular target: Sigma intracellular receptor 2 (Homo sapiens, UniProt Q5BJF2); test: GPCRScan assay: inhibition of Sigma 2; design: radioligand conc. used [nm] 5.0, parental cells HEKT
Chain of Sigma intracellular receptor 2 (Q5BJF2 whole entry): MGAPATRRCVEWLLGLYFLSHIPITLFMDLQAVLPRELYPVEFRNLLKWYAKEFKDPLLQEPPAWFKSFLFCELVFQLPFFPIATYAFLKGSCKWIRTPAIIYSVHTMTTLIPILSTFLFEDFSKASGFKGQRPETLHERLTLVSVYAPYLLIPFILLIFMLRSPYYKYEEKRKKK

[44] = molecular target: Sigma non-opioid intracellular receptor 1 (Homo sapiens) (UniProt Q99720); conditions: Compound concentration 10.0 uM
[45] = molecular target: Calcium/calmodulin-dependent protein kinase type 1G (Homo sapiens) (UniProt Q96NX5); conditions: Compound concentration 1000.0 nM
Chain of Calcium/calmodulin-dependent protein kinase type 1G (Homo sapiens) (Q96NX5 whole entry): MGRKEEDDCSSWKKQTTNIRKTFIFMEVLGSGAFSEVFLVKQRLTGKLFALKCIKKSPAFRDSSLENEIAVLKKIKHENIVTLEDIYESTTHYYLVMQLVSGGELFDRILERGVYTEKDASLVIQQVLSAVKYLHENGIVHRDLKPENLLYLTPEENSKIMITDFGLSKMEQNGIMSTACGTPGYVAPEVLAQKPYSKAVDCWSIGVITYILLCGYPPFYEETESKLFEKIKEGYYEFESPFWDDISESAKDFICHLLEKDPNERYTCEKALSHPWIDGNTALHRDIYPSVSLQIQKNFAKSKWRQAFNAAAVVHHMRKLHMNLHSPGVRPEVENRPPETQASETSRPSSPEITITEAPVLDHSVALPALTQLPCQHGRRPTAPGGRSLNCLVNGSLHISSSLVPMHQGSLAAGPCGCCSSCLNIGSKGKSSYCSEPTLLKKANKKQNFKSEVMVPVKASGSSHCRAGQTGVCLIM

For `COc1cc(-c2cn([C@H]3CCc4c(F)cccc4N(CC(F)(F)F)C3=O)nn2)ccc1-n1cnc(C)c1`, the residual activity [1] was 79%, the inhibition (Rattus norvegicus) was 8.82% and the residual activity [2] was 100%. It also gave a residual activity [3] of 92%, a residual activity [4] of 97% and a residual activity [5] of 100%. The inhibition [6] was 27.6%, the residual activity [7] was 100% and the residual activity [8] was 100%. For the same compound, the residual activity [9] was 100%, the residual activity [10] was 100% and the residual activity [11] was 100%. The residual activity [12] was 93%, the residual activity [13] was 99% and the residual activity [14] was 100%. For the same compound, the residual activity [15] was 100%, the residual activity [16] was 100% and the residual activity [17] was 88%. It also gave a residual activity [18] of 100%, a residual activity [19] of 100% and a residual activity [20] of 100%. The residual activity [21] was 100%, the residual activity [22] was 100% and the residual activity [23] was 100%. For the same compound, the residual activity [24] was 100%, the residual activity [25] was 94% and the residual activity [26] was 79%. For the same compound, the residual activity [27] was 100%, the residual activity [28] was 100% and the residual activity [29] was 100%. For the same compound, the residual activity [30] was 100%, the residual activity [31] was 100% and the residual activity [32] was 81%. For the same compound, the residual activity [33] was 100%, the residual activity [34] was 100% and the residual activity [35] was 100%. The residual activity [36] was 100%, the residual activity [37] was 100% and the residual activity [38] was 100%. For the same compound, the residual activity [39] was 100%, the residual activity [40] was 100% and the residual activity [41] was 100%. It also gave an inhibition [42] of 26.1%, a Ki ([43]; read-out: Ki) of 890 nM and an inhibition [44] of 26.6%. It also gave a residual activity [45] of 100%.
`COc1cc(-c2cn([C@H]3CCc4ccccc4N(CC(F)(F)F)C3=O)nn2)ccc1-n1ccc(C)n1` showed a residual activity [1] of 65%, an inhibition (Rattus norvegicus) of 59.5% and a residual activity [2] of 100%. The residual activity [3] was 64%, the residual activity [4] was 80% and the residual activity [5] was 100%. For the same compound, the inhibition [6] was 16.9%, the residual activity [7] was 58% and the residual activity [8] was 91%. The residual activity [9] was 67%, the residual activity [10] was 74% and the residual activity [11] was 100%. The residual activity [12] was 96%, the residual activity [13] was 80% and the residual activity [14] was 100%. For the same compound, the residual activity [15] was 78%, the residual activity [16] was 100% and the residual activity [17] was 53%. For the same compound, the residual activity [18] was 100%, the residual activity [19] was 85% and the residual activity [20] was 93%. The residual activity [21] was 98%, the residual activity [22] was 84% and the residual activity [23] was 84%. It also gave a residual activity [24] of 96%, a residual activity [25] of 78% and a residual activity [26] of 87%. For the same compound, the residual activity [27] was 100%, the residual activity [28] was 100% and the residual activity [29] was 100%. For the same compound, the residual activity [30] was 87%, the residual activity [31] was 79% and the residual activity [32] was 82%. The residual activity [33] was 100%, the residual activity [34] was 100% and the residual activity [35] was 100%. It also gave a residual activity [36] of 86%, a residual activity [37] of 100% and a residual activity [38] of 100%. The residual activity [39] was 100%, the residual activity [40] was 100% and the residual activity [41] was 100%. The inhibition [42] was 0.39%, the Ki ([43]; read-out: Ki) was 835 nM and the Ki ([43]; read-out: pKi (converted)) was 741 nM. It also gave an inhibition [44] of 23.2% and a residual activity [45] of 100%.
